Residues, ends and D or L forms follow the SMILES beside them. *: point of attachment. Cbz = O=C(OCc1ccccc1)*
Assays:
[1] = molecular target: T1, bacterially expressed ERK7 (Rattus norvegicus, UniProt Q9Z2A6); assay: ERK7 kinase assay, phosphorylation of GST-MBPtide, HRP-ELISA; format: biochemical; conditions: purified ERK7 5 nM
T1 construct: HIS-tag; made in house; host or cells: bacteria
T1 sequence (Q9Z2A6 1-547): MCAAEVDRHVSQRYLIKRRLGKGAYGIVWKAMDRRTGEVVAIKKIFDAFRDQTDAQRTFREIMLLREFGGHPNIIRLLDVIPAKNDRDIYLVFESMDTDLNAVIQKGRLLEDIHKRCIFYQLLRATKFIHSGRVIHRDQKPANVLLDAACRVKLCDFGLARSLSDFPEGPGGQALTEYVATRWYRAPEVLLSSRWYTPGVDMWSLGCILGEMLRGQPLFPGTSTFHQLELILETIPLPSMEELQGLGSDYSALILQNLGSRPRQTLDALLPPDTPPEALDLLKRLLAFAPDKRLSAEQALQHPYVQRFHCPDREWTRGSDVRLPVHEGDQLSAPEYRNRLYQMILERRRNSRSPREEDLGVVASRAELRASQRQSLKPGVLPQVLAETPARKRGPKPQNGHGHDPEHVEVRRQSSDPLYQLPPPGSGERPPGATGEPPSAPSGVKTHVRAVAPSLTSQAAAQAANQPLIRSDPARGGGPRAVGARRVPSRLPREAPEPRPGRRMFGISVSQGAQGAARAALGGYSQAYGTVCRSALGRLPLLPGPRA
Protocol: FIG. 1: is a graph representing the determination of the KM of ATP for bacterially expressed ERK7. Purified ERK7 (5 nM) was incubated in the presence of increasing ATP concentrations. The concentration of ATP supporting maximal velocity of the kinase reaction is 1 mM. The concentration of ATP supporting half-maximal velocity (KM) is ˜100 μM. Background is the measured signal from reactions carried out in the presence of 200 mM EDTA, which eliminates kinase activity. The background has not been subtracted from the ERK7 signal. Phosphorylation of the immobilized GST-MBPtide was detected using the HRP-ELISA as described in Example 1.
Kinase assays were developed to measure the activity of rat ERK7 and human ERK8. Purified, recombinant ERK7 and ERK8 were obtained by introducing a HIS-tag in frame with the coding sequence of the kinases, expressing the proteins in bacteria and purifying the proteins over a NiNTA resin (Qiagen, Valencia, Calif.). […]
The kinase assays were performed in a 96 well format according to the following procedure. […] All assays measured the initial velocity of reaction. […] HRP activity was measured using Western Lightning Chemiluminescence Reagent (NEL102, PerkinElmer Life Sciences) according to manufacturer's protocol. Maximum and minimum activity is the relative luminescence detected in the presence of vehicle and 200 mM EDTA, respectively. […]

ERα = ERα protein levels by immunoblot in transfected BHK cells treated with proteasome inhibitor; format: cell-based, hamster; conditions: presence and absence of estradiol
Protocol: BHK cells were transfected in 10 mm dishes with calcium phosphate and 1 μg of wild type or mutant ERα or FLAG-IκBα or HA-SF1 or HA-AR construct, 5 μg of a construct encoding a wild type or mutant kinase or vector control. At 8 h post transfection, the cells were washed with phosphate-buffered saline (PBS) and placed in Dulbecco's modified Eagle's medium (DMEM) with 5% fetal calf serum (FCS).

[2] = tested on: ERα-regulated transcription; assay: ERE-luciferase transcriptional analysis in MCF-7 stable lines; format: cell-based, human
ERK7/8 = conditions: cited from earlier work
MAPK(ERK1/2) = conditions: cells expressing MAPK(ERK1/2); cited from earlier work

In the case of `Nc1ncnc2c1ncn2[C@@H]1O[C@H](COP(=O)(O)OP(=O)(O)OP(=O)(O)O)[C@@H](O)[C@H]1O` [ATP], the “concentration supporting maximal velocity of the kinase reaction” value [1] is reported as 1 mM and the Km ([1]; increasing ATP, read-out: KM (concentration supporting half-maximal velocity)) is reported as roughly 100 µM.
In the case of `CC(C)C[C@@H](C=O)NC(=O)[C@H](CC(C)C)NC(=O)[C@H](CC(C)C)NC(=O)OCc1ccccc1` [MG132] (Cbz-Leu-Leu-Leu-aldehyde), the “effect on ERα protein levels” value (ERα) is reported as “increased ERα protein levels”, the “effect on transcriptional response” value ([2]; MCF-7 cells stably expressing K43A-ERK7, ERE-luciferase reporter) is reported as “not affected” and the “increase of transcriptional response to estradiol” value ([2]; MCF-7 control (vector) stable cells, ERE-luciferase reporter) is reported as roughly 3 fold.
In the case of `C=C1[C@@H](O)[C@@H]2O[C@]3(CC[C@H](/C=C/[C@@H](C)[C@@H]4CC(C)=C[C@@]5(O[C@H](C[C@@](C)(O)C(=O)O)CC[C@H]5O)O4)O3)CC[C@H]2O[C@@H]1[C@@H](O)C[C@H](C)[C@H]1O[C@@]2(CCCCO2)CC[C@H]1C` [okadaic acid], the “effect on ERK7/8 TEY phosphorylation” value (ERK7/8) is listed as “no effect” and the “effect on amount of TEY phosphorylated MAPK(ERK1/2)” value (MAPK(ERK1/2)) is listed as “increases”.

Source: patent US20060141473A1, “Erk7 and erk8, novel diagnostic markers for cancer” (priority 2003, published 2006)
